Bounds are passed on as bounds.

One may read the IC50 as the concentration at which inhibition is half-maximal. The term EC50 denotes the concentration at which the effect is half-maximal.

Assay [1] addresses purified recombinant human GAC (GLS1) (Homo sapiens (Human), UniProt O94925). Briefly: GLS1 Enzymatic Activity Assay (dual-coupled enzymatic assay, resorufin/Amplex UltraRed readout).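 Also: glutamate from GAC coupled via glutamate oxidase and peroxidase to resorufin, read as fluorescence (ex 530, em 590 nm) kinetically or at 20 min, four-parameter logistic IC50 fit.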 The format is biochemical.
Another assay relates to A549 cells. Description: Proliferation Assay (A549 viability, Cell Titer Fluor, 72 hours). The assay is classed as cell-based. The settings on record: Homo sapiens, A549, 72 h. The essentials:
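A549 cells seeded at 1000 cells/well, rested 24 h, then exposed to compound in 0.5% DMSO for 72 h at 37 °C. Viability read by Cell Titer Fluor fluorescence; IC50 from four-parameter logistic fit.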

purified recombinant human GAC (GLS1), sequence (O94925 other isoform, or with tags, fused parts or gaps): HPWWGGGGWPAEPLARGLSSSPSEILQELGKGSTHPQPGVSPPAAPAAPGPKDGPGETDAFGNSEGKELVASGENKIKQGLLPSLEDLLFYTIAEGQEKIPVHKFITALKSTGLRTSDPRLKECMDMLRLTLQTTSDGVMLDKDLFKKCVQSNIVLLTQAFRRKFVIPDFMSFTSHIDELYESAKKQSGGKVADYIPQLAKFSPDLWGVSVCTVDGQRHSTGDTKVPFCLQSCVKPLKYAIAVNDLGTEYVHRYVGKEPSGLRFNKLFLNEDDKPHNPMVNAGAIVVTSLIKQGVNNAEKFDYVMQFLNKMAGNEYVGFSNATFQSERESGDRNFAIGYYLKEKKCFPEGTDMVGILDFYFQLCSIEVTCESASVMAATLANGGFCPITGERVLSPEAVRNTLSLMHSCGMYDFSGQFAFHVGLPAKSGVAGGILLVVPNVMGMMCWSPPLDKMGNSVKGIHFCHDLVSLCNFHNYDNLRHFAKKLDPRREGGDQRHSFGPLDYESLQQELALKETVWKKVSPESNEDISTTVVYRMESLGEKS

On to `CNC(=O)c1cn(CCCCc2ccc(NC(=O)Cc3cccc(Br)c3)nn2)nn1` [Example 542, 1-(4-{6-[2-(3-bromophenyl)acetamido]pyridazin-3-yl}butyl)-N-methyl-1H-1,2,3-triazole-4-carboxamide], for which the IC50 in assay [1] was < 100 nM. Also, the EC50 in the assay with A549 cells lay in the range of 100 to 500 nM.

As for `CNC(=O)c1cn(CCCCc2ccc(NC(=O)Cc3cccc(S(C)(=O)=O)c3)nn2)nn1` [Example 543, 1-(4-{6-[2-(3-methanesulfonylphenyl)acetamido]pyridazin-3-yl}butyl)-N-methyl-1H-1,2,3-triazole-4-carboxamide], in assay [1], the IC50 is < 100 nM. The EC50 with A549 cells was in the range of 500 to 5000 nM.

As to `CNC(=O)c1cn(CCCCc2ccc(NC(=O)Cc3cccc(-c4ccccn4)c3)nn2)nn1` [Example 545, N-methyl-1-[4-(6-{2-[3-(pyridin-2-yl)phenyl]acetamido}pyridazin-3-yl)butyl]-1H-1,2,3-triazole-4-carboxamide], the IC50 in assay [1] was < 100 nM. Also, the EC50 in the assay on A549 cells is 100 to 500 nM.

Regarding `CNC(=O)c1cn(CCCCc2ccc(NC(=O)CC3CCOCC3)nn2)nn1` [Example 547, N-methyl-1-(4-{6-[2-(oxan-4-yl)acetamido]pyridazin-3-yl}butyl)-1H-1,2,3-triazole-4-carboxamide], in assay [1], the IC50 lay in the range of 100 to 500 nM. This compound also had a concentration giving a half-maximal response (EC50) with A549 cells of 500 to 5000 nM.

Consider `CNC(=O)c1cn(CCCCc2ccc(NC(=O)CC3CCCC3)nn2)nn1` [Example 548, 1-{4-[6-(2-cyclopentylacetamido)pyridazin-3-yl]butyl}-N-methyl-1H-1,2,3-triazole-4-carboxamide], for which the IC50 in assay [1] is 100 to 500 nM. For the same compound, the concentration giving a half-maximal response (EC50) with A549 cells is 500 to 5000 nM.

Take `O=C(Cc1cccc(OC(F)(F)F)c1)Nc1ccc(CCCCn2cc(C(=O)NCC3COC3)nn2)nn1` [Example 550, N-(oxetan-3-ylmethyl)-1-[4-(6-{2-[3-(trifluoromethoxy)phenyl]acetamido}pyridazin-3-yl)butyl]-1H-1,2,3-triazole-4-carboxamide]: the IC50 in assay [1] was < 100 nM. Further, the 50% effective concentration (EC50) in the assay with A549 cells is 100 to 500 nM.

In the case of `O=C(Cc1cccc(OC(F)(F)F)c1)Nc1ccc(CCCCn2cc(C(=O)NCC(CO)CO)nn2)nn1` [Example 552, N-[3-hydroxy-2-(hydroxymethyl)propyl]-1-[4-(6-{2-[3-(trifluoromethoxy)phenyl]acetamido}pyridazin-3-yl)butyl]-1H-1,2,3-triazole-4-carboxamide], the IC50 in assay [1] is 500 to 5000 nM. For the same compound, the EC50 with A549 cells was > 5000 nM.

In the case of `O=C(Cc1ccccn1)Nc1nnc(CCCCn2cc(C(=O)NCc3cccc(OC(F)(F)F)c3)nn2)s1` [Example 553, 1-(4-{5-[2-(pyridin-2-yl)acetamido]-1,3,4-thiadiazol-2-yl}butyl)-N-{[3-(trifluoromethoxy)phenyl]methyl}-1H-1,2,3-triazole-4-carboxamide], in assay [1], the half-inhibitory concentration (IC50) was < 100 nM. Besides, in the assay with A549 cells, the half-maximal effective concentration (EC50) is < 100 nM.

On to `O=C(Cc1ccccn1)Nc1nnc(CCCCn2cc(C(=O)NCc3cc(OC(F)(F)F)ccc3F)nn2)s1` [Example 554, N-{[2-fluoro-5-(trifluoromethoxy)phenyl]methyl}-1-(4-{5-[2-(pyridin-2-yl)acetamido]-1,3,4-thiadiazol-2-yl}butyl)-1H-1,2,3-triazole-4-carboxamide], for which, in assay [1], the IC50 was < 100 nM. In addition, the 50% effective concentration (EC50) in the assay on A549 cells was < 100 nM.

Turning to `CNC(=O)c1nnc(CCC(F)Cn2cc(C(=O)NCc3cc(OC(F)(F)F)ccc3F)nn2)s1` (stereo not drawn) [Example 555, 5-{3-fluoro-4-[4-({[2-fluoro-5-(trifluoromethoxy)phenyl]methyl}carbamoyl)-1H-1,2,3-triazol-1-yl]butyl}-N-methyl-1,3,4-thiadiazole-2-carboxamide], the IC50 in assay [1] is < 100 nM. In the assay on A549 cells, this compound gave a concentration for a half-maximal effect (EC50) of 100 to 500 nM.

Turning to `CNC(=O)c1nnc(CCC(F)Cn2cc(C(=O)NCc3ccccc3)nn2)s1` (stereo not drawn) [Example 556, 5-{4-[4-(benzylcarbamoyl)-1H-1,2,3-triazol-1-yl]-3-fluorobutyl}-N-methyl-1,3,4-thiadiazole-2-carboxamide], the half-inhibitory concentration (IC50) in assay [1] was in the range of 100 to 500 nM. Further, in the assay on A549 cells, the EC50 was in the range of 500 to 5000 nM.

For the compound `CNC(=O)c1nnc(CCC(F)Cn2cc(C(=O)NCc3ccccn3)nn2)s1` (stereo not drawn) [Example 557, 5-(3-fluoro-4-{4-[(pyridin-2-ylmethyl)carbamoyl]-1H-1,2,3-triazol-1-yl}butyl)-N-methyl-1,3,4-thiadiazole-2-carboxamide], the IC50 in assay [1] lay within 500 to 5000 nM. Moreover, the EC50 in the assay on A549 cells lay in the range of 500 to 5000 nM.

Take `O=C(Cc1cccc(OC(F)(F)F)c1)Nc1nnc(CCC(F)Cn2cc(C(=O)NCC3COC3)nn2)s1` (stereo not drawn) [Example 558, 1-[2-fluoro-4-(5-{2-[3-(trifluoromethoxy)phenyl]acetamido}-1,3,4-thiadiazol-2-yl)butyl]-N-(oxetan-3-ylmethyl)-1H-1,2,3-triazole-4-carboxamide]: the IC50 in assay [1] is < 100 nM. In the assay on A549 cells, this compound came in with a 50% effective concentration (EC50) of 500 to 5000 nM.

For `Cc1ccc(CNC(=O)c2cn(CC(F)CCc3nnc(NC(=O)Cc4cccc(OC(F)(F)F)c4)s3)nn2)cn1` (stereo not drawn) [Example 559, 1-[2-fluoro-4-(5-{2-[3-(trifluoromethoxy)phenyl]acetamido}-1,3,4-thiadiazol-2-yl)butyl]-N-[(6-methylpyridin-3-yl)methyl]-1H-1,2,3-triazole-4-carboxamide], in assay [1], the IC50 was < 100 nM. The compound further registered an EC50 with A549 cells of 100 to 500 nM.

For `CC(C)(CO)CNC(=O)c1cn(CCCCc2ccc(NC(=O)Cc3cccc(OC(F)(F)F)c3)nn2)nn1` [Example 560, N-(3-hydroxy-2,2-dimethylpropyl)-1-[4-(6-{2-[3-(trifluoromethoxy)phenyl]acetamido}pyridazin-3-yl)butyl]-1H-1,2,3-triazole-4-carboxamide], the IC50 in assay [1] is < 100 nM. In addition, in the assay with A549 cells, the EC50 lay in the range of 100 to 500 nM.

For the compound `CNC(=O)c1cn(CC(F)CCc2nnc(C(=O)NCc3cccc(OC(F)(F)F)c3)s2)nn1` (stereo not drawn) [Example 561, 5-{3-fluoro-4-[4-(methylcarbamoyl)-1H-1,2,3-triazol-1-yl]butyl}-N-{[3-(trifluoromethoxy)phenyl]methyl}-1,3,4-thiadiazole-2-carboxamide], in assay [1], the 50% inhibitory concentration (IC50) was < 100 nM. The EC50 in the assay on A549 cells lay within 100 to 500 nM.

As for `CNC(=O)c1cn(CC(F)CCc2nnc(C(=O)NCc3cc(OC(F)(F)F)ccc3F)s2)nn1` (stereo not drawn) [Example 562, 5-{3-fluoro-4-[4-(methylcarbamoyl)-1H-1,2,3-triazol-1-yl]butyl}-N-{[2-fluoro-5-(trifluoromethoxy)phenyl]methyl}-1,3,4-thiadiazole-2-carboxamide], the 50% inhibitory concentration (IC50) in assay [1] was < 100 nM. Also, the EC50 with A549 cells was 100 to 500 nM.

As to `CNC(=O)c1cn(CC(F)CCc2nnc(C(=O)NCc3ccccc3)s2)nn1` (stereo not drawn) [Example 563, N-benzyl-5-{3-fluoro-4-[4-(methylcarbamoyl)-1H-1,2,3-triazol-1-yl]butyl}-1,3,4-thiadiazole-2-carboxamide], the half-maximal inhibitory concentration (IC50) in assay [1] was 500 to 5000 nM. The half-maximal effective concentration (EC50) in the assay with A549 cells was in the range of 500 to 5000 nM.

On to `CNC(=O)c1cn(CC(F)CCc2nnc(NC(=O)Cc3ncc(Cl)cc3F)s2)nn1` (stereo not drawn) [Example 564, 1-(4-{5-[2-(5-chloro-3-fluoropyridin-2-yl)acetamido]-1,3,4-thiadiazol-2-yl}-2-fluorobutyl)-N-methyl-1H-1,2,3-triazole-4-carboxamide], for which, in assay [1], the IC50 was < 100 nM. In the assay with A549 cells, this compound yielded an EC50 of 500 to 5000 nM.

Turning to `CNC(=O)c1cn(CCCCc2ccc(NC(=O)Cc3cccc(N4CCCC4)c3)nn2)nn1` [Example 565, N-methyl-1-(4-(6-(2-(3-(pyrrolidin-1-yl)phenyl)acetamido)pyridazin-3-yl)butyl)-1H-1,2,3-triazole-4-carboxamide], the IC50 in assay [1] is < 100 nM. In the assay with A549 cells, this compound returned an EC50 of 100 to 500 nM.

Take `CC(=O)Nc1nnc(CCC(F)Cn2cc(C(=O)NCc3cccc(OC(F)(F)F)c3)nn2)s1` (stereo not drawn) [Example 566, 1-(4-(5-acetamido-1,3,4-thiadiazo1-2-yl)-2-fluorobutyl)-N-(3-(trifluoromethoxy)benzyl)-1H-1,2,3-triazole-4-carboxamide]: the 50% inhibitory concentration (IC50) in assay [1] is < 100 nM. The compound also returned an EC50 in the assay on A549 cells of 100 to 500 nM.

Take `CC(=O)Nc1nnc(CCC(F)Cn2cc(C(=O)NCc3cc(C(F)(F)F)ccn3)nn2)s1` (stereo not drawn) [Example 567, 1-(4-(5-acetamido-1,3,4-thiadiazol-2-yl)-2-fluorobutyl)-N-((4-(trifluoromethyl)pyridin-2-yl)methyl)-1H-1,2,3-triazole-4-carboxamide]: the IC50 in assay [1] was < 100 nM. The EC50 with A549 cells was 100 to 500 nM.

On to `O=C(NCc1cccc(OC(F)(F)F)c1)c1cn(CC(F)CCc2nnc(NC(=O)C3CC3)s2)nn1` (stereo not drawn) [Example 568, 1-(4-(5-(cyclopropanecarboxamido)-1,3,4-thiadiazol-2-yl)-2-fluorobutyl)-N-(3-(trifluoromethoxy)benzyl)-1H-1,2,3-triazole-4-carboxamide], for which, in assay [1], the half-maximal inhibitory concentration (IC50) was < 100 nM. In the assay with A549 cells, this compound displayed an EC50 of 100 to 500 nM.

On to `CNC(=O)c1cn(CC(F)CCc2nnc(C(=O)NCc3ccccn3)s2)nn1` (stereo not drawn) [Example 570, 5-(3-fluoro-4-(4-(methylcarbamoyl)-1H-1,2,3-triazol-1-yl)butyl)-N-(pyridin-2-ylmethyl)-1,3,4-thiadiazole-2-carboxamide], for which the IC50 in assay [1] lay in the range of 100 to 500 nM. In the assay on A549 cells, this compound displayed an EC50 of 500 to 5000 nM.

`O=C(Cc1ccccn1)Nc1nnc(CCC(F)Cn2cc(C(=O)NCc3cncc(C(F)(F)F)c3)nn2)s1` (stereo not drawn) [Example 571, 1-(2-fluoro-4-(5-(2-(pyridin-2-yl)acetamido)-1,3,4-thiadiazol-2-yl)butyl)-N-((5-(trifluoromethyl)pyridin-3-yl)methyl)-1H-1,2,3-triazole-4-carboxamide]: in assay [1], the 50% inhibitory concentration (IC50) is < 100 nM. The half-maximal effective concentration (EC50) with A549 cells was < 100 nM.

Turning to `CNC(=O)c1nnc(CCCCc2ccc(NC(=O)Cc3cccc(OC(F)(F)F)c3)nn2)s1` [Example 572, N-methyl-5-(4-(6-(2-(3-(trifluoromethoxy)phenyl)acetamido)pyridazin-3-yl)butyl)-1,3,4-thiadiazole-2-carboxamide], the IC50 in assay [1] is < 100 nM. The compound also had a concentration for a half-maximal effect (EC50) in the assay on A549 cells of 100 to 500 nM.

On to `O=C(Cc1nccs1)Nc1nnc(CCC(F)Cn2cc(C(=O)NCc3cc(OC(F)(F)F)ccc3F)nn2)s1` (stereo not drawn) [Example 573, 1-(2-fluoro-4-(5-(2-(thiazol-2-yl)acetamido)-1,3,4-thiadiazol-2-yl)butyl)-N-(2-fluoro-5-(trifluoromethoxy)benzyl)-1H-1,2,3-triazole-4-carboxamide], for which the half-inhibitory concentration (IC50) in assay [1] was < 100 nM. Besides, the concentration for a half-maximal effect (EC50) in the assay with A549 cells was < 100 nM.

The record behind these values is US10344025B2, “GLS1 inhibitors for treating disease” (Board of Regents, The University of Texas System, priority 2014, dated 2019).
